Key:
SMARCA2 = biological target: T1, SMARCA2 (Homo sapiens, UniProt P51531); test: SMARCA2 HiBiT degradation assay in HeLa cells; format: cell-based; conditions: 18 hours; for DC50: read-out: SMARCA2 IC50; for Dmax: HeLa
T1 construct: SMARCA2-HiBiT knock-in Hela monoclonal cell (CS302366); host or cells: HeLa (CRISPR HiBiT knock-in monoclonal line, heterozygous)
How it was run: (§1)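 Degradation measured as HiBiT luminescence (Nano-Glo lytic reagent) after 18 h compound exposure at 37° C. Cells were HeLa clones carrying heterozygous HiBiT tags on SMARCA2 or SMARCA4, 2500 per well; compounds at 3-fold serial dilution from 10 μM.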

SMARCA4 = biological target: T2, SMARCA4 (Homo sapiens, UniProt P51532); test: SMARCA4 HiBiT degradation assay in HeLa cells; format: cell-based; conditions: 18 hours; for Dmax: HeLa
T2 construct: SMARCA4-HiBiT knock-in Hela monoclonal cell (CS3023226) were purchased from Promega; host or cells: HeLa (CRISPR HiBiT knock-in monoclonal line, heterozygous)
T2 sequence (P51532 whole entry): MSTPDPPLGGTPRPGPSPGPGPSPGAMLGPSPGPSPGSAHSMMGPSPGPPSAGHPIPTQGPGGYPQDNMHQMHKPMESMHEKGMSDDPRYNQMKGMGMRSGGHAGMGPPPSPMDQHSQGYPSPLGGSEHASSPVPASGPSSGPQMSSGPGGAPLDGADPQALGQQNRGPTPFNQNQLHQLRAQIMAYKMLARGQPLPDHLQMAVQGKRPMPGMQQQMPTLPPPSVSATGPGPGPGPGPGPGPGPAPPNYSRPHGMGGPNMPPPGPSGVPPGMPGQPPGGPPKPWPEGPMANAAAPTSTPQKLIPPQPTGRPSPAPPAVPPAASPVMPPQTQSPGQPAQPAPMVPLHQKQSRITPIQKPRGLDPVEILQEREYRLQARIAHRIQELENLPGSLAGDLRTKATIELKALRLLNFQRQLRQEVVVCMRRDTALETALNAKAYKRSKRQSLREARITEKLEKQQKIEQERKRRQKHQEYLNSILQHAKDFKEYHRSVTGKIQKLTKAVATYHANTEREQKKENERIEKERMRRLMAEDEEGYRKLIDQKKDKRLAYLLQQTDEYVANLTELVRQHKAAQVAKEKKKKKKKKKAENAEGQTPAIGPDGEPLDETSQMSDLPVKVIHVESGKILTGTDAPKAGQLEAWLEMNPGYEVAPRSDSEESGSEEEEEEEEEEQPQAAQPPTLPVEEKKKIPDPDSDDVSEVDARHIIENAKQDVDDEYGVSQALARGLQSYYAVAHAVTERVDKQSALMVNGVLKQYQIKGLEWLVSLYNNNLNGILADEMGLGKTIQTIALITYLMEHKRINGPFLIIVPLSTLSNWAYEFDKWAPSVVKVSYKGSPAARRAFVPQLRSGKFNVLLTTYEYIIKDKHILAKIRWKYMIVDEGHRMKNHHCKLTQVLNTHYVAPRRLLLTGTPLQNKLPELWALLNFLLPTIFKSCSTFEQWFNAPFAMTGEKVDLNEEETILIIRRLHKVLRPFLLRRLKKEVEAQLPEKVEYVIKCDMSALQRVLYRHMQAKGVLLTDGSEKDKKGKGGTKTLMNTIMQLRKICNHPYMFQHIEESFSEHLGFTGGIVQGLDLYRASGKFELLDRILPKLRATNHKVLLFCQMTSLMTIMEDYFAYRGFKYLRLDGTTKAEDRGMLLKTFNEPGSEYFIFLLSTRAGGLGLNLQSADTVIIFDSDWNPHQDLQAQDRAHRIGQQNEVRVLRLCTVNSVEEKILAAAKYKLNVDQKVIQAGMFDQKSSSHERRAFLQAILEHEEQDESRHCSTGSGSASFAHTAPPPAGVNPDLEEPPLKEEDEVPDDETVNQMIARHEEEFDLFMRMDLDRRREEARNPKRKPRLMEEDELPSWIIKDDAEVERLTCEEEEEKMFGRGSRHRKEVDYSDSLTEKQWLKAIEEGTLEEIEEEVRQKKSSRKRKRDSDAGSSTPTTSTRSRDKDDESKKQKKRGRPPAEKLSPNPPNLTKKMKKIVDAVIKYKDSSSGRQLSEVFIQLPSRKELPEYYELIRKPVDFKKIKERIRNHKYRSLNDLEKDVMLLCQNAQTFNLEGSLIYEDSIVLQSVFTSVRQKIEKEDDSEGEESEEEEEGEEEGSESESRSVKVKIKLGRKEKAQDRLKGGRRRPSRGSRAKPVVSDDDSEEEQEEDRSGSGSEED
How it was run: as §1

T1 sequence (P51531 whole entry): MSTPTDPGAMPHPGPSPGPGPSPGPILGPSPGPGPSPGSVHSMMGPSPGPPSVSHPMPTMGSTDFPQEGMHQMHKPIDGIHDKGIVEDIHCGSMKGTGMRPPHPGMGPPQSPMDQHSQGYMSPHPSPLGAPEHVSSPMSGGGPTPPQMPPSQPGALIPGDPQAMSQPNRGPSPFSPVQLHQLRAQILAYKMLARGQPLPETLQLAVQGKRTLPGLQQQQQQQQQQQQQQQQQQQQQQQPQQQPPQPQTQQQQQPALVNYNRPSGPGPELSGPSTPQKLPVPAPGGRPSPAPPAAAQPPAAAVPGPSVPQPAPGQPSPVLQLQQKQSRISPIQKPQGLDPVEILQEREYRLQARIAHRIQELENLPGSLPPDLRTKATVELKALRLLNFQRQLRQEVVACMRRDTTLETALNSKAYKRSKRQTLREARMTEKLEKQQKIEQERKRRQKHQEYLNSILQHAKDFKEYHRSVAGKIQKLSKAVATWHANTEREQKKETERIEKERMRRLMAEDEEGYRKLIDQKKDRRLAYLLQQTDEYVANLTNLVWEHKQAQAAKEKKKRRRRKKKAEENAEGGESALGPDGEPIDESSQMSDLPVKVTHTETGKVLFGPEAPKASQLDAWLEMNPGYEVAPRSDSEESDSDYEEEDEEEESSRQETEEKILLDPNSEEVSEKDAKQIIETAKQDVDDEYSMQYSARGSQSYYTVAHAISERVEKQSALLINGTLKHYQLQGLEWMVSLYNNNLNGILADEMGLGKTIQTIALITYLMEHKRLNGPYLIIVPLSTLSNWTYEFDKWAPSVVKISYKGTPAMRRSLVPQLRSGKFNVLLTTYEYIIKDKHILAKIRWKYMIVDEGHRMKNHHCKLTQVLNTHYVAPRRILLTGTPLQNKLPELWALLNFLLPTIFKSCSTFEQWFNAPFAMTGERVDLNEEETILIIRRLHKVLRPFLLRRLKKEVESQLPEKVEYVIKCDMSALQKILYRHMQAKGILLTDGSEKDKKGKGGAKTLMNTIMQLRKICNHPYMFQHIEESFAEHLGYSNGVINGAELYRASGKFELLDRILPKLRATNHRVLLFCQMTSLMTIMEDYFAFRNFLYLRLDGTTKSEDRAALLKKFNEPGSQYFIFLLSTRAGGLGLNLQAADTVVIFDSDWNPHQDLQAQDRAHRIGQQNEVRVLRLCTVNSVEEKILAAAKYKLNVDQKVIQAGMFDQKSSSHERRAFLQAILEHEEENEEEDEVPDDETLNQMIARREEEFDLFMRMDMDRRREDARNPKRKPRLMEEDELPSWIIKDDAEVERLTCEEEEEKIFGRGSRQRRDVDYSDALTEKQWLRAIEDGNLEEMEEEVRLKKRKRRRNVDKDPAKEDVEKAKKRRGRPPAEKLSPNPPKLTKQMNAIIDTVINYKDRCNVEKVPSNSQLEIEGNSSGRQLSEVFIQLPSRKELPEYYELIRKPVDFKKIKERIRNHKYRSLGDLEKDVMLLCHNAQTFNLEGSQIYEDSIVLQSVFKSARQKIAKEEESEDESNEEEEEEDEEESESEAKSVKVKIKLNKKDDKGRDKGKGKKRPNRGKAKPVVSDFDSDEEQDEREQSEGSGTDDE

Row | SMILES | DC50 (SMARCA2) | Dmax (SMARCA2) | DC50 (SMARCA4) | Dmax (SMARCA4) | SMARCA2 DMax % (SMARCA2) | SMARCA4 DMax % (SMARCA4)
1 | CCC1CN(CC2CN(c3ccc4c(c3)C(=O)N(C3CCC(=O)NC3=O)C4)C2)CCN1C(=O)N1CCN2c3cc(-c4cc(F)cc(F)c4O)nnc3NC[C@H]2C1 (mixture of isomers) [Example 29, 3-(6-(3-((4-((S)-2-(3,5-difluoro-2-hydroxyphenyl)-6,6a,7,8,9,10-hexahydro-5H-pyrazino[1′,2′:4,5]pyrazino[2,3-c]pyridazine-8-carbonyl)-3-ethylpiperazin-1-yl)methyl)azetidin-1-yl)-1-oxoisoindolin-2-yl)piperidine-2,6-dione] | < 100 nM | > 75% | < 100 nM | < 50% |  | 
2 | C[C@@H]1CN(CC2CCN(c3ccc4c(c3)C(=O)N(C3CCC(=O)NC3=O)C4)CC2)C[C@@H](C)N1C(=O)N1CCN2c3cc(-c4cccc(Cl)c4O)nnc3NCC2(C)C1 (single isomer, unassigned) [Example 14] | < 100 nM | > 75% | < 100 nM | 50 to 75% |  | 
3 | C[C@@H]1C[C@H](CN2CCN(c3ccc4c(c3)C(=O)N([C@H]3CCC(=O)NC3=O)C4)CC2)C[C@H](C)N1C(=O)N1CCN2c3cc(-c4cccc(F)c4O)nnc3NCC2(C(F)(F)F)C1 (single isomer, unassigned) [Example 99] | < 100 nM |  | < 100 nM |  | A (A=Dmax>75%) | B (B=50%<Dmax≤75%)
4 | C[C@H]1CN2c3cc(-c4cccc(F)c4O)nnc3NC[C@H]2CN1C(=O)N1CCN(CC2CCN(c3ccc4c(c3)C(=O)N(C3CCC(=O)NC3=O)C4)CC2)CC1(C)C (stereo partly drawn) [Example 4, 3-(6-(4-((4-((6aS,9S)-2-(3-fluoro-2-hydroxyphenyl)-9-methyl-6,6a,7,8,9,10-hexahydro-5H-pyrazino[1′,2′:4,5]pyrazino[2,3-c]pyridazine-8-carbonyl)-3,3-dimethylpiperazin-1-yl)methyl)piperidin-1-yl)-1-oxoisoindolin-2-yl)piperidine-2,6-dione] | < 100 nM | > 75% | < 100 nM | < 50% |  | 
5 | C[C@@H]1CN(CC2CCN(c3ccc4c(c3)C(=O)N(C3CCC(=O)NC3=O)C4=O)CC2)C[C@H](C)N1C(=O)N1CCN2c3cc(-c4cc(F)cc(F)c4O)nnc3NCC2(C)C1 (stereo partly drawn) [Example 36, 5-(4-(((3S,5R)-4-(2-(3,5-difluoro-2-hydroxyphenyl)-6a-methyl-6,6a,7,8,9,10-hexahydro-5H-pyrazino[1′,2′:4,5]pyrazino[2,3-c]pyridazine-8-carbonyl)-3,5-dimethylpiperazin-1-yl)methyl)piperidin-1-yl)-2-(2,6-dioxopiperidin-3-yl)isoindoline-1,3-dione] | < 100 nM | > 75% | < 100 nM | > 75% |  | 
6 | CCC12CNc3nnc(-c4cccc(F)c4O)cc3N1CCN(C(=O)C1(F)CCN(CC3CCN(c4ccc5c(c4)C(=O)N([C@H]4CCC(=O)NC4=O)C5)CC3)CC1)C2 (single isomer, unassigned) [Example 107] | < 100 nM | > 75% | 100 to 1000 nM |  |  | C (C=Dmax<50%)
7 | CCC12CNc3nnc(-c4cc(F)cc(F)c4O)cc3N1CCN(C(=O)C1(F)CCN(CC3CCN(c4ccc5c(c4)C(=O)N([C@H]4CCC(=O)NC4=O)C5)CC3)CC1)C2 (single isomer, unassigned) [Example 110] | < 100 nM |  | < 100 nM |  |  | 
8 | CCC12CNc3nnc(-c4cc(F)cc(F)c4O)cc3N1CCN(C(=O)C1(F)CCC(CN3CCN(c4ccc5c(c4)C(=O)N([C@H]4CCC(=O)NC4=O)C5)CC3)CC1)C2 (single isomer, unassigned) [Example 102] | < 100 nM | > 75% | < 100 nM |  |  | A (A=Dmax>75%)
9 | CCC12CNc3nnc(-c4cccc(F)c4O)cc3N1CCN(C(=O)N1[C@H](C)CN(CC3CCN(c4ccc5c(c4)C(=O)N(C4CCC(=O)NC4=O)C5)CC3)C[C@@H]1C)C2 (single isomer, unassigned) [Example 86] | < 100 nM |  | < 100 nM |  | A (A=Dmax>75%) | A (A=Dmax>75%)
10 | CC1(C)CN(CC2CCN(c3ccc4c(c3)C(=O)N(C3CCC(=O)NC3=O)C4)CC2)CCN1C(=O)N1CCN2c3cc(-c4cccc(F)c4O)nnc3NC[C@H]2C1 (stereo partly drawn) [Example 5, 3-(6-(4-((4-((S)-2-(3-fluoro-2-hydroxyphenyl)-6,6a,7,8,9,10-hexahydro-5H-pyrazino[1′,2′:4,5]pyrazino[2,3-c]pyridazine-8-carbonyl)-3,3-dimethylpiperazin-1-yl)methyl)piperidin-1-yl)-1-oxoisoindolin-2-yl)piperidine-2,6-dione] | < 100 nM | > 75% | < 100 nM | < 50% |  | 
11 | CCC12CNc3nnc(-c4cc(F)cc(F)c4O)cc3N1CCN(C(=O)N1CCN(CC3CCN(c4ccc5c(c4)C(=O)N(C4CCC(=O)NC4=O)C5)CC3)CC1(C)C)C2 (mixture of isomers) [Example 27, 3-(6-(4-((4-(2-(3,5-difluoro-2-hydroxyphenyl)-6a-ethyl-6,6a,7,8,9,10-hexahydro-5H-pyrazino[1′,2′:4,5]pyrazino[2,3-c]pyridazine-8-carbonyl)-3,3-dimethylpiperazin-1-yl)methyl)piperidin-1-yl)-1-oxoisoindolin-2-yl)piperidine-2,6-dione] | < 100 nM | > 75% | < 100 nM | 50 to 75% |  | 
12 | C[C@@H]1CN(CC2CCN(c3ccc4c(c3)C(=O)N(C3CCC(=O)NC3=O)C4)CC2)C[C@H](C)N1C(=O)N1CCN2c3cc(-c4cc(F)cc(F)c4O)nnc3NCC2(C)C1 (stereo partly drawn) [Example 26, 3-(6-(4-(((3S,5R)-4-(2-(3,5-difluoro-2-hydroxyphenyl)-6a-methyl-6,6a,7,8,9,10-hexahydro-5H-pyrazino[1′,2′:4,5]pyrazino[2,3-c]pyridazine-8-carbonyl)-3,5-dimethylpiperazin-1-yl)methyl)piperidin-1-yl)-1-oxoisoindolin-2-yl)piperidine-2,6-dione] | < 100 nM | > 75% | < 100 nM | > 75% |  | 
13 | C[C@@H]1CN(CC2CCN(c3ccc4c(c3)C(=O)N([C@H]3CCC(=O)NC3=O)C4)CC2)C[C@@H](C)N1C(=O)N1CCN2c3cc(-c4cccc(F)c4O)nnc3NCC2(C(F)(F)F)C1 (single isomer, unassigned) [Example 97] | < 100 nM |  | 100 to 1000 nM |  | A (A=Dmax>75%) | C (C=Dmax<50%)
14 | C[C@@H]1CN(CC2CCN(c3ccc4c(c3)C(=O)N([C@H]3CCC(=O)NC3=O)C4)CC2)C[C@@H](C)N1C(=O)N1CCN2c3cc(-c4cccc(F)c4O)nnc3NC[C@]2(C(F)F)C1 [Example 67, (S)-3-(6-(4-(((3R,5R)-4-((R)-6a-(difluoromethyl)-2-(3-fluoro-2-hydroxyphenyl)-6,6a,7,8,9,10-hexahydro-5H-pyrazino[1′,2′:4,5]pyrazino[2,3-c]pyridazine-8-carbonyl)-3,5-dimethylpiperazin-1-yl)methyl)piperidin-1-yl)-1-oxoisoindolin-2-yl)piperidine-2,6-dione] | < 100 nM | 50 to 75% | < 100 nM | 50 to 75% |  | 
15 | O=C1CCC(N2Cc3ccc(N4CCN(C[C@H]5CC[C@H](CN6CCN7c8cc(-c9cccc(F)c9O)nnc8NC[C@H]7C6)CC5)CC4)cc3C2=O)C(=O)N1 (stereo partly drawn) [Example 58, 3-(6-(4-(((1S,4r)-4-(((S)-2-(3-fluoro-2-hydroxyphenyl)-5,6,6a,7,9,10-hexahydro-8H-pyrazino[1′,2′:4,5]pyrazino[2,3-c]pyridazin-8-yl)methyl)cyclohexyl)methyl)piperazin-1-yl)-1-oxoisoindolin-2-yl)piperidine-2,6-dione] | < 100 nM | > 75% | < 100 nM | 50 to 75% |  | 
16 | O=C1CCC(N2Cc3ccc(N4CCC(CN5CCC(F)(C(=O)N6CCN7c8cc(-c9cc(F)cc(F)c9O)nnc8NC[C@H]7C6)CC5)CC4)cc3C2=O)C(=O)N1 (stereo partly drawn) [Example 55, 3-(6-(4-((4-((S)-2-(3,5-difluoro-2-hydroxyphenyl)-6,6a,7,8,9,10-hexahydro-5H-pyrazino[1′,2′:4,5]pyrazino[2,3-c]pyridazine-8-carbonyl)-4-fluoropiperidin-1-yl)methyl)piperidin-1-yl)-1-oxoisoindolin-2-yl)piperidine-2,6-dione] | < 100 nM | 50 to 75% | < 100 nM | < 50% |  | 
17 | C[C@@H]1CN(CC2CN(c3ccc4c(c3)C(=O)N(C3CCC(=O)NC3=O)C4)C2)C[C@H](C)N1C(=O)N1C[C@@H]2CNc3nnc(-c4cc(F)cc(F)c4O)cc3N2C[C@@H]1C (stereo partly drawn) [Example 24, 3-(6-(3-(((3S,5R)-4-((6aS,9S)-2-(3,5-difluoro-2-hydroxyphenyl)-9-methyl-6,6a,7,8,9,10-hexahydro-5H-pyrazino[1′,2′:4,5]pyrazino[2,3-c]pyridazine-8-carbonyl)-3,5-dimethylpiperazin-1-yl)methyl)azetidin-1-yl)-1-oxoisoindolin-2-yl)piperidine-2,6-dione] | < 100 nM | > 75% | > 1000 nM | < 50% |  | 
18 | CC12CNc3nnc(-c4cc(F)cc(F)c4O)cc3N1CCN(C(=O)C1(F)CCN(CC3CCN(c4ccc5c(c4)C(=O)N([C@H]4CCC(=O)NC4=O)C5)CC3)CC1)C2 (single isomer, unassigned) [Example 113] | < 100 nM |  | > 1000 nM |  | A (A=Dmax>75%) | C (C=Dmax<50%)
19 | CC12CNc3nnc(-c4cc(F)cc(F)c4O)cc3N1CCN(C(=O)C1(F)CCN(CC3CCN(c4ccc5c(c4)C(=O)N([C@H]4CCC(=O)NC4=O)C5)CC3)CC1)C2 (single isomer, unassigned) [Example 112] | < 100 nM | > 75% | < 100 nM |  |  | A (A=Dmax>75%)

— patent publication US20230365576A1, “BRM Targeting Compounds And Associated Methods Of Use” (Prelude Therapeutics Incorporated, priority 2022, published 2023)
